Active and inactive are the calls of the source. The calls are words filed in the database; no cut-off is given here.
Legend:
[1] = (§1) Cytoprotective effect on HMEC1 cells assessed as cell viability at 10 uM after 24 hrs by MTT assay; assay type: functional; conditions: Homo sapiens, HMEC-1, 24 h, read-out: Activity
[2] = (§2) Cytoprotective effect on HMEC1 cells assessed as cell viability by MTT assay; assay type: functional, Homo sapiens, HMEC-1
[3] = system: HMEC-1; assay: Effect on HMEC1 cells-mediated LDL oxidation at 10 uM after 6 hrs by TBARS assay; assay type: functional, Homo sapiens
[4] = system: Plasmodium falciparum; assay: Antiplasmodial activity against Plasmodium falciparum FCM29 at 10 ug/mL as [3H]hypoxanthine uptake; assay type: functional
[5] = system: HMEC-1; assay: as §2; assay type: functional; conditions: Homo sapiens
[6] = system: P388; assay: Cytotoxicity against mouse P388 cells at 10 ug/mL after 72 hrs; assay type: functional; conditions: P388, 72 h
[7] = system: P388; assay: Cytotoxicity against mouse P388 cells after 72 hrs; assay type: functional, cell-based; conditions: P388, 72 h
[8] = system: HMEC-1; assay: as §1; assay type: functional; conditions: Homo sapiens
[9] = system: Plasmodium falciparum; assay: Antiplasmodial activity against Plasmodium falciparum FCM29 by [3H]hypoxanthine uptake; assay type: functional, organism-based
[10] = system: HMEC-1; assay: Effect on HMEC1 cells-mediated LDL oxidation at 100 uM after 6 hrs by TBARS assay; assay type: functional, cell-based; conditions: Homo sapiens

IC50 [9] [nM]	Molecule	viability at 10 µM [1] [%]	Activity [2] [%]	Activity [3] [%]	inhibition at 10 µg/mL [4] [%]	Activity [5]	inhibition at 10 µg/mL [6] [%]	IC50 [7] [nM]	Activity ([3]; Homo sapiens)	Activity [8] [%]	Activity [10]
–	CC(C)(Sc1cc(C(C)(C)C)c(O)c(C(C)(C)C)c1)Sc1cc(C(C)(C)C)c(O)c(C(C)(C)C)c1 [PROBUCOL]	55	92	10	–	–	–	–	–	–	–
–	COC(=O)/C=C/c1cc(OC)c2c(c1)C(C(=O)OC)C(c1ccc(O)c(OC)c1)O2 (stereo not drawn)	40	–	–	0	Active	85.2	772	Active	–	–
–	VITAMIN E	–	–	–	–	29%	–	–	55%	40	–
–	COC(=O)/C=C/c1ccc(O/C(=C\c2ccc(O)c(OC)c2)C(=O)OC)c(OC)c1	40	–	–	23.8	Active	0	–	Active	–	–
798	COC(=O)/C=C/c1cc(OC)c2c(c1)C(COC(=O)c1cc(O)c(O)c(O)c1)C(c1ccc(O)c(OC)c1)O2 (stereo not drawn)	40	59.9	2.2	93.7	–	16.4	–	–	–	–
–	CC[C@@]1(O)C(=O)OCc2c1cc1n(c2=O)Cc2cc3ccccc3nc2-1 [CAMPTOTHECIN]	–	–	–	–	–	–	32.1	–	–	–
–	COC(=O)/C=C/c1cc(OC)c2c(c1)C(CO)C(c1ccc(O)c(OC)c1)O2 (stereo not drawn)	40	–	–	25.7	–	8.63	–	–	–	Active

— ChEMBL document CHEMBL1149667, “Synthesis of ferulic ester dimers, functionalisation and biological evaluation as potential antiatherogenic and antiplasmodial agents” (Bioorg Med Chem, 2007)
